Source: patent publication US5830697A, “P-glycoprotein mutant resistant to cyclosporin modulation” (The Board of Trustees of the Leland Stanford Junior …, priority 1997, dated 1998)
pIC50: −log10 of the molar value. Where two headings read alike, the source gives them in different places.

How the values were obtained:
[1] = tested on: MES-SA cells; assay: Growth inhibition (MTT) assay, with or without MDR modulators; type: cell-based, human; details: MES-SA cells
Experimental: (§1) Cells and Tissue Culture. Details of the development and characterization of the human cell line MES-SA and its MDR variant MES-SA/Dx5 (D×5), which were derived from sarcoma elements of a uterine mixed Mullerian tumor, are described in Harker and Sikic (1985) Cancer Research 45:3810-3815. MES-SA/DxP5002 (DxP) cells were derived from Dx5.05 cells (D×5 cells selected and maintained at a DOX concentration of 0.5 μM) by step-wise selection in the presence of increasing DOX concentrations (from 40 nM up to 0.5 μM) and a constant PSC 833 concentration at 2 μM over a one-year period. Monolayer cultures of MES-SA cells and its variants were grown in McCoy's medium (Irvine Scientific, Santa Ana, Calif.) supplemented with 10% newborn calf serum (Gibco, Grand Island, N.Y.), 2 mM L-glutamine, and antibiotics(100 U/ml penicillin, 100 μg/ml streptomycin).
(§2) Growth Inhibition Assay. Approximately 8000 cells per well were seeded in 96 well plates and incubated with or without drugs for 72 hr at 37° C. in an atmosphere of 5% CO2. Growth inhibition was evaluated by the MTT colorimetric assay in triplicate or quadruplicate as previously described. The absorbance was measured with a ThermoMax microplate reader (Molecular Devices, Menlo Park, Calif.). The IC50 (drug concentration resulting in 50% inhibition of MTT dye formation, compared to controls) was determined directly from semi-logarithmic dose-response curves. The doubling times of MES-SA, D×5, and D×P were determined as previously described.
(§3) Reversal of MDR by Modulators. […] The modulation ratio was obtained by comparing IC50 s in the presence and absence of modulators.

[2] = tested on: MES-SA/Dx5 (Dx5) cells; assay: as above; type: cell-based, human
Experimental: as §1, §2, §3

[3] = tested on: MES-SA/DxP5002 (DxP) cells; assay: as above
Experimental: Cells and Tissue Culture. […] Monolayer cultures of MES-SA cells and its variants were grown in McCoy's medium (Irvine Scientific, Santa Ana, Calif.) supplemented with 10% newborn calf serum (Gibco, Grand Island, N.Y.), 2 mM L-glutamine, and antibiotics(100 U/ml penicillin, 100 μg/ml streptomycin).
as §2, with “The IC50 (drug concentration resulting in 50% inhibition of MTT dye formation, compared to controls) was determined directly from semi-logarithmic dose-response curves.” left out
as §3

[4] = tested on: Dx/PAS cells; assay: MTT assay, DxP subclone; type: cell-based, human
Experimental: as §2, §3
(§4) Clonal Analysis of D×P cells. Subcloning of cells was performed by limiting dilution. Both resistant and revertant clones were analyzed for the MDR phenotype, drug accumulation, and rt-PCR or heteroduplex as described above.

[5] = tested on: Dx/PBS cells; assay: MTT assay, DxP subclone; type: cell-based, human
Experimental: as §2, §3, §4

[6] = tested on: Dx/PCS cells; assay: MTT assay, DxP subclone; type: cell-based, human
Experimental: as §2, §3, §4

[7] = tested on: Dx/PDS cells; assay: MTT assay, DxP subclone; type: cell-based, human
Experimental: as §2, §3, §4

[8] = tested on: Dx/PES cells; assay: MTT assay, DxP subclone; type: cell-based, human
Experimental: as §2, §3, §4

[9] = tested on: Dx/PFS cells; assay: MTT assay, DxP subclone; type: cell-based, human
Experimental: as §2, §3, §4

[10] = tested on: Dx/PGS cells; assay: MTT assay, DxP subclone; type: cell-based, human
Experimental: as §2, §3, §4

[11] = tested on: Dx/PHS cells; assay: MTT assay, DxP subclone; type: cell-based, human
Experimental: as §2, §3, §4

[12] = tested on: Dx/PIS cells; assay: MTT assay, DxP subclone; type: cell-based, human
Experimental: as §2, §3, §4

[13] = tested on: Dx/PJS cells; assay: MTT assay, DxP subclone; type: cell-based, human
Experimental: as §2, §3, §4

[14] = tested on: Dx/PMS cells; assay: MTT assay, DxP subclone; type: cell-based, human
Experimental: as §2, §3, §4

[15] = tested on: Dx5 cells; assay: Rh-123 retention, flow cytometry; type: cell-based, human
Experimental: Flow Cytometric Analysis. The flow cytometric analysis of Rh-123 retention and P-gp expression were determined by a dual laser flow cytometer (FACS-II™; Becton Dickinson Corp., Mountain View, Calif.). Double labeling with Rh-123 and the monoclonal antibody UIC2 (Immunotech Coporation, Westbrook, Me.) was performed as previously described. Briefly, following the Rh-123 incubation step, cells were treated with UIC2 (40 μg/ml) and then reacted with either Texas Red or FITC-conjugated goat anti-mouse IgG2a secondary antibody (Caltag, So. San Francisco, Calif,). Cells were centrifuged through a calf serum cushion, resuspended in 200 μl of modified ice-cold Hank's balanced salt solution, and analyzed by flow cytometry.

[16] = tested on: Dx5 cells; assay: Cellular accumulation of [3H]-labeled drugs; type: cell-based, human
Experimental: (§5) Cellular Accumulation of [^3 H]-Daunorubicin, [^3 H]-Vinblastine, and [^3 H]Cyclosporine. lntracellular drug accumulation was quantified using radiolabeled drugs in a modified assay. The cells were seeded in 35×10 mm tissue culture dishes (Falcon, Becton Dickinson, Lincoln Park, N.J.), at 1×10^6 cells/dish. After overnight incubation, the growth medium was replaced with serum-free McCoy's 5A medium supplemented with 40 mM Hepes buffer (Sigma Chemicals, St. Louis, Mo.). Radiolabeled drugs were added at the appropriate concentration and incubated for 1 hr at 37° C. The medium was aspirated and cell pellet solubilized in 4% SDS at 65° C. for 1 hr. Ecolite™ scintillation cocktail (INC Biochemicals, Costa Mesa, Calif.) was added and radioactivity determined on an LS-9000 scintillation counter (Beckman Instruments, Brea, Calif.). All values were normalized to protein content.

[17] = tested on: DxP cells; assay: Cellular accumulation of [3H]-labeled drugs; type: cell-based, human
Experimental: as §5

[18] = molecular target: P-gp of Dx5 cells (Homo sapiens, UniProt P08183)
Experimental: (§6) Photoaffinity Labeling with [^25 -I]-iodoarylazidoprazesin and [^3 H]-Azidopine. […] These preparations were incubated at 25° C. for 1 hour in the dark, followed by a 20 min exposure to a 366 nm UV source (UVP, Inc., San Gabriel, Calif.). 50 μl of loading buffer was added and proteins separated on an 8% SDS-polyacrylamide gel, dried, and analyzed by autoradiography.

[19] = molecular target: P-gp of DxP cells (Phe335/336 deletion) (Homo sapiens, UniProt P08183, DEL335-335)
P-gp of DxP cells (Phe335/336 deletion), sequence (P08183 with tags, fused parts or gaps DEL335-335): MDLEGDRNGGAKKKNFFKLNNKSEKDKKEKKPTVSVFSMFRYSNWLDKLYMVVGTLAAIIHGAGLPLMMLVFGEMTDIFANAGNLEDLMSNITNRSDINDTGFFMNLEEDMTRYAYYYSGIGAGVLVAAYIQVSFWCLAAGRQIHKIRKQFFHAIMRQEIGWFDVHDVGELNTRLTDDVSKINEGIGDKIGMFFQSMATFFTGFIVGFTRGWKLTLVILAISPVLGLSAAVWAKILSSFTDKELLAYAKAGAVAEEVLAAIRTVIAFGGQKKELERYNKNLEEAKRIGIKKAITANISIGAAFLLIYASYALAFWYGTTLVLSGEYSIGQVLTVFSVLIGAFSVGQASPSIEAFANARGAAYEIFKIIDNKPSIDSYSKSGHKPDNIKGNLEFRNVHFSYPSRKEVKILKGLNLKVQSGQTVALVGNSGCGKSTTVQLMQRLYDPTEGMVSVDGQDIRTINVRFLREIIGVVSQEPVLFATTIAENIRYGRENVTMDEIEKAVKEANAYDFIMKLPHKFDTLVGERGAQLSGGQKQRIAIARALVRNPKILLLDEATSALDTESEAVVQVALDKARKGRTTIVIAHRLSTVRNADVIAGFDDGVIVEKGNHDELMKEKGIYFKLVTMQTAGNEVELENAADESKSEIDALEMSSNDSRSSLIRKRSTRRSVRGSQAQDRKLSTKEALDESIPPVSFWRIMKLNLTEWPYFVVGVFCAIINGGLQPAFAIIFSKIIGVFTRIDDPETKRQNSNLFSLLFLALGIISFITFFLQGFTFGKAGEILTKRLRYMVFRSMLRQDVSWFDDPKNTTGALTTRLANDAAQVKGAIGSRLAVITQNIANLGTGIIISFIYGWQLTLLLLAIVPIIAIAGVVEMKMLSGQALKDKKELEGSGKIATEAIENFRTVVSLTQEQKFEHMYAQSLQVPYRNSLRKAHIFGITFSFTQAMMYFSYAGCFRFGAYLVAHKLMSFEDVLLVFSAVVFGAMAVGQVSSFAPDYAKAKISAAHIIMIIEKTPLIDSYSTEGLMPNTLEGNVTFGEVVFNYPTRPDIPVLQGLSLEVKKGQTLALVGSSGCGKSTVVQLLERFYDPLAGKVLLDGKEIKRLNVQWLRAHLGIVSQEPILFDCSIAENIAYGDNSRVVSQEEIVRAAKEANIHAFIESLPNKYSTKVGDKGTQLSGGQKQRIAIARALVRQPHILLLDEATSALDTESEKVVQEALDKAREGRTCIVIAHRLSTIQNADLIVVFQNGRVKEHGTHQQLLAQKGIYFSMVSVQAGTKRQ
Experimental: as §6

P-gp of Dx5 cells, sequence (P08183 whole entry): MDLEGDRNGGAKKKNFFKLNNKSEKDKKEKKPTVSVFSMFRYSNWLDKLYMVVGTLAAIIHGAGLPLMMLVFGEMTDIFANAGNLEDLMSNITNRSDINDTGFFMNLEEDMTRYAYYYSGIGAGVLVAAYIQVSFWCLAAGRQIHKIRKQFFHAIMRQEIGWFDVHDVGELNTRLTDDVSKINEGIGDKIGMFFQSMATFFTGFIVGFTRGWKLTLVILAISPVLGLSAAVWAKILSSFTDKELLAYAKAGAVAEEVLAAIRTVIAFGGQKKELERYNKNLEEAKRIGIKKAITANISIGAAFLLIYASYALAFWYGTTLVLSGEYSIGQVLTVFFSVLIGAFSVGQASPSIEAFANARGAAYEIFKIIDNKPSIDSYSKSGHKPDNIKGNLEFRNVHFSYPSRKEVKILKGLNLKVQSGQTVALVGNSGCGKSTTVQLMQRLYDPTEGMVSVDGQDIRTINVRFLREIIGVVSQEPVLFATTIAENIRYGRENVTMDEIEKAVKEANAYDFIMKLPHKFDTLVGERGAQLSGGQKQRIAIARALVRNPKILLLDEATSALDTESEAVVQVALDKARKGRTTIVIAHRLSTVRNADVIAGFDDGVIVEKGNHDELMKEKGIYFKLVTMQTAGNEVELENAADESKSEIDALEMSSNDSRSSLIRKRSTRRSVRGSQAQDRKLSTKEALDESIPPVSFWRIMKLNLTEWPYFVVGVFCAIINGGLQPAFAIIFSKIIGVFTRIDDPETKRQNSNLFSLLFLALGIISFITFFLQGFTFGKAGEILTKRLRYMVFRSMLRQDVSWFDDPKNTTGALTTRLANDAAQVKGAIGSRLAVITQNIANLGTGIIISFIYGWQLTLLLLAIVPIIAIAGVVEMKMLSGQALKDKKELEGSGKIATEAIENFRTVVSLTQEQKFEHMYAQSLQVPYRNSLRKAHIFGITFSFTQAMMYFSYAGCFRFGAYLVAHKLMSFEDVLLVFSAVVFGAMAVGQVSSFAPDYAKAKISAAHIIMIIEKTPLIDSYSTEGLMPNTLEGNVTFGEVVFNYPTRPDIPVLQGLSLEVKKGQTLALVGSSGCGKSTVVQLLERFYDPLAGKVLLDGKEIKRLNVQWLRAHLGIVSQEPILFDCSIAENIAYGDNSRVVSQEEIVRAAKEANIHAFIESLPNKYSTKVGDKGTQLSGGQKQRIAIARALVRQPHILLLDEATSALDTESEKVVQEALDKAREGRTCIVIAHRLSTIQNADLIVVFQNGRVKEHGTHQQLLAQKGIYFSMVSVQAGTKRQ

Q: What does the source list for COc1cccc2c1C(=O)c1c(O)c3c(c(O)c1C2=O)C[C@@](O)(C(=O)CO)C[C@@H]3O[C@H]1C[C@H](N)[C@H](O)[C@H](C)O1 [Doxorubicin]?
A: pIC50 ([1]; Homo sapiens, 72 hr MTT, read-out: IC50 of drug-sensitive MES-SA cells (values in parenthesis)): 7.40; Fold resistance ([1]; +2 μM PSC 833): 1 fold; Fold resistance ([1]; +3 μM cyclosporin A): 0.5 fold; Fold resistance ([1]; +6 μM Verapamil): 0.5 fold; Fold resistance ([1]; no modulator, 72 hr MTT): 1 fold; Fold resistance ([2]; +2 μM PSC 833): 1 fold; Fold resistance ([2]; +3 μM cyclosporin A): 2 fold; Fold resistance ([2]; +6 μM Verapamil): 4 fold; Fold resistance ([2]; no modulator, relative to MES-SA): 80 fold; Level of resistance of DxP cells to the cytotoxin compared with parental Dx5 (in words) ([3]; DxP cells): similar; Fold resistance ([3]; DxP cells, +2 μM PSC 833): 53 fold; Fold resistance ([3]; DxP cells, +3 μM cyclosporin A): 30 fold; Fold resistance ([3]; DxP cells, +6 μM Verapamil): 18 fold; Fold resistance ([3]; DxP cells, no modulator, relative to MES-SA): 77 fold; Dx5/DxP, fold of resistance difference in DxP cells compared with parental Dx5 cells ([3]; DxP vs Dx5): 1 fold; fold resistance relative to MES-SA ([4]; + PSC): 51 fold; fold resistance relative to MES-SA ([4]; no modulator): 163 fold; fold resistance relative to MES-SA ([5]; + PSC): 13 fold; fold resistance relative to MES-SA ([5]; no modulator): 67 fold; fold resistance relative to MES-SA ([6]; + PSC): 23 fold; fold resistance relative to MES-SA ([6]; no modulator): 50 fold; fold resistance relative to MES-SA ([7]; + PSC): 100 fold; fold resistance relative to MES-SA ([7]; no modulator): 150 fold; fold resistance relative to MES-SA ([8]; + PSC): 100 fold; fold resistance relative to MES-SA ([8]; no modulator): 96 fold; fold resistance relative to MES-SA ([9]; + PSC): 75 fold; fold resistance relative to MES-SA ([9]; no modulator): 150 fold; fold resistance relative to MES-SA ([10]; + PSC): 7 fold; fold resistance relative to MES-SA ([10]; no modulator): 7 fold; fold resistance relative to MES-SA ([11]; + PSC): 37 fold; fold resistance relative to MES-SA ([11]; no modulator): 83 fold; fold resistance relative to MES-SA ([12]; + PSC): 3 fold; fold resistance relative to MES-SA ([12]; no modulator): 13 fold; fold resistance relative to MES-SA ([13]; + PSC): 75 fold; fold resistance relative to MES-SA ([13]; no modulator): 175 fold; fold resistance relative to MES-SA ([14]; + PSC): 50 fold; fold resistance relative to MES-SA ([14]; no modulator): 100 fold

Q: How did the “Modulation of MDR by the modulator (in words)” value ([2]; 2 μM, sensitivity to DOX, vinblastine, paclitaxel, vincristine and colchicine relative to MES-SA) turn out when C/C=C/C[C@@H](C)C(=O)[C@H]1C(=O)N[C@@H](C(C)C)C(=O)N(C)CC(=O)N(C)[C@@H](CC(C)C)C(=O)N[C@@H](C(C)C)C(=O)N(C)[C@@H](CC(C)C)C(=O)N[C@@H](C)C(=O)N[C@H](C)C(=O)N(C)[C@@H](CC(C)C)C(=O)N(C)[C@@H](CC(C)C)C(=O)N(C)[C@@H](C(C)C)C(=O)N1C [PSC 833] was run?
A: completely restored the sensitivity

Q: What about the “Resistance of cells to the modulating effects of the modulator (in words)” value ([3]; DxP cells, PSC 833 2 μM, cyclosporin 3 μM, verapamil 6 μM) of the same compound?
A: almost completely resistant

Q: What about the “Effect of modulator on Rh-123 accumulation” value ([15]; PSC 833 2 μM) of the same compound?
A: completely restored

Q: And the “Modulation of decreased drug accumulation by modulator” value [16]?
A: complete modulation

Q: What about the “Modulation of decreased [3H]-cyclosporin accumulation by modulator” value ([16]; to levels of DxP and MES-SA cells) of the same compound?
A: completely modulated

Q: And the “Modulation of decreased drug accumulation by modulator” value ([17]; DxP cells)?
A: not modulated

Q: What about the “Effect on [125I]-iodoarylazidoprazosin photoaffinity labeling of P-gp” value (“Effect … of P-gp” for short) ([18]; 100 μM) of the same compound?
A: abolished detectable P-gp labeling

Q: What about the “Effect … of P-gp” value ([18]; 0.1 and 10 μM) of the same compound?
A: effectively competed

Q: And the “Displacement of [3H]-azidopine photoaffinity labeling” value [19]?
A: resistant to the displacement

Q: And the “Effect … of P-gp” value ([19]; 100 μM)?
A: abolished detectable P-gp labeling

Q: And the “Effect … of P-gp” value ([19]; 0.1 and 10 μM)?
A: enhanced photoaffinity binding

Q: Rhodamine-123 [Rh-123] was tested. Which “Cellular accumulation of Rh-123” value [15] did it give?
A: markedly decreased

Q: [^3 H]-vinblastine was tested. Which “Intracellular accumulation in DxP relative to Dx5 cells” value ([17]; [3H]-labeled drug, 1 hr) did it give?
A: approximately 3 fold
